Experimental data as given in US6391827B1, “Pyrrolic compounds having a high herbicidal activity and their agronomic use” (Isagro Ricerca S.r.l., priority 1999, dated 2002).

Key:
Assay type in all cases: in vivo
Set-up in all cases: key: 0=0-20% of damage; 1=21-40%; 2=41-60%; 3=61-80%; 4=81-95%; 5=death of the plant treated
Conditions in all cases: 150 g/hectare, evaluated 21 days after treatment, damage vs blank
[1] = tested on: Abutilon theofrasti (AT); test: Herbicidal activity in post-emergence, Abutilon theofrasti
Experimental: (§1) The herbicidal activity of the compounds of the invention was evaluated with respect to both monocotyledon and dicotyledon weeds, in post- and pre-emergence treatment.
(§2) The evaluation tests were carried out according to the following operative procedures.
(§3) Vases (diameter over 10 cm, height 10 cm) containing sandy medium were prepared. One of the following weeds was planted in each of them: Abutilon theofrasti (AT), Amarantus retraflexus (AR), Chenopodium album (CA), Convolvulus sepium (CS), Portulaca oleracea (PO), Solanum nigrum (SN), Ipomea purpurea (IP).
(§4) Water was added to each vase in a suitable quantity for a good germination of the seeds. The vases were divided into two groups, each group containing at least 5 vases for each weed.
(§5) The first group was not treated with herbicide and was used as a comparison (blank).
(§6) The second group of vases was treated fifteen days after sowing (i.e. when the small weed plants, depending on the species, were 10-15 cm high) with a hydroacetone dispersion at 20% by volume of acetone of the product to be evaluated (herbicidal activity in post-emergence). All the vases were kept under observation in a conditioned environment under the following environmental conditions:
(§7) light intensity: 10000 lux
(§8) Every two days, the vases were uniformly watered to ensure a sufficient degree of humidity for a good development of the plants.
(§9) 21 days after treatment, the herbicidal activity was evaluated on the basis of the following scale of values referring to the percentage of damage measured on the treated plants with respect to those not treated (blank): […]

[2] = tested on: Amarantus retraflexus (AR); test: Herbicidal activity in post-emergence, Amarantus retraflexus
Experimental: as §1, §2, §3, §4, §5, §6, §7, §8, §9

[3] = tested on: Chenopodium album (CA); test: Herbicidal activity in post-emergence, Chenopodium album
Experimental: as §1, §2, §3, §4, §5, §6, §7, §8, §9

[4] = tested on: Portulaca oleracea (PO); test: Herbicidal activity in post-emergence, Portulaca oleracea
Experimental: as §1, §2, §3, §4, §5, §6, §7, §8, §9

[5] = tested on: Convolvulus sepium (CS); test: Herbicidal activity in post-emergence, Convolvulus sepium
Experimental: as §1, §2, §3, §4, §5, §6, §7, §8, §9

[6] = tested on: Solanum nigrum (SN); test: Herbicidal activity in post-emergence, Solanum nigrum
Experimental: as §1, §2, §3, §4, §5, §6, §7, §8, §9

[7] = tested on: Ipomea purpurea (IP); test: Herbicidal activity in post-emergence, Ipomea purpurea
Experimental: as §1, §2, §3, §4, §5, §6, §7, §8, §9

CCOC(=O)COc1cc(-c2c(Br)c(C(F)(F)F)n(C)c2Br)c(F)cc1Cl [Compound 4, ethyl 2-chloro-5-(2,4-dibromo-1-methyl-5-trifluoromethylpyrrol-3-yl)-4-fluorophenoxy acetate]
5: Herbicidal activity in post-emerqence, AT [1] | Herbicidal activity in post-emerqence, AR [2] | Herbicidal activity in post-emerqence, CA [3] | Herbicidal activity in post-emerqence, PO [4] | Herbicidal activity in post-emerqence, CS [5] | Herbicidal activity in post-emerqence, SN [6] | Herbicidal activity in post-emerqence, IP [7]

C#CCOc1cc(-c2c(Br)c(C(F)(F)F)n(C)c2Br)c(F)cc1Cl [Compound 5, 3-[4-chloro-2-fluoro-5-(2-propinyloxy)phenyl]-2,4-dibromo-1-methyl-5-trifluoromethylpyrrole]
5: Herbicidal activity in post-emerqence, AT [1] | Herbicidal activity in post-emerqence, AR [2] | Herbicidal activity in post-emerqence, CA [3] | Herbicidal activity in post-emerqence, PO [4] | Herbicidal activity in post-emerqence, CS [5] | Herbicidal activity in post-emerqence, SN [6] | Herbicidal activity in post-emerqence, IP [7]

C#CCOc1cc(-c2c(Cl)c(C(F)(F)F)n(C)c2Cl)c(F)cc1Cl [Compound 14, 3-[4-chloro-2-fluoro-5-(2-propinyloxy)phenyl]-2,4-dichloro-1-methyl-5-trifluoromethyl pyrrole]
5: Herbicidal activity in post-emerqence, AT [1] | Herbicidal activity in post-emerqence, AR [2] | Herbicidal activity in post-emerqence, CA [3] | Herbicidal activity in post-emerqence, PO [4] | Herbicidal activity in post-emerqence, CS [5] | Herbicidal activity in post-emerqence, SN [6] | Herbicidal activity in post-emerqence, IP [7]

CCOC(=O)COc1cc(-c2c(Cl)c(C(F)(F)F)n(C)c2Cl)c(F)cc1Cl [Compound 15, ethyl [2-chloro-5-(2,4-dichloro-1-methyl-5-trifluoro methylpyrrol-3-yl)-4-fluorophenoxy]acetate]
5: Herbicidal activity in post-emerqence, AT [1] | Herbicidal activity in post-emerqence, AR [2] | Herbicidal activity in post-emerqence, CA [3] | Herbicidal activity in post-emerqence, PO [4] | Herbicidal activity in post-emerqence, CS [5] | Herbicidal activity in post-emerqence, SN [6] | Herbicidal activity in post-emerqence, IP [7]

C#CCOc1cc(-c2c(Br)c(C(F)(F)F)n(C)c2Cl)c(F)cc1Cl [Compound 17, 4-bromo-3-[4-chloro-2-fluoro-5-(2-propinyloxy)phenyl]-2-chloro-1-methyl-5-trifluoromethyl pyrrole]
5: Herbicidal activity in post-emerqence, AT [1] | Herbicidal activity in post-emerqence, AR [2] | Herbicidal activity in post-emerqence, CA [3] | Herbicidal activity in post-emerqence, PO [4] | Herbicidal activity in post-emerqence, CS [5] | Herbicidal activity in post-emerqence, SN [6] | Herbicidal activity in post-emerqence, IP [7]

CCOC(=O)COc1cc(-c2c(Br)c(C(F)(F)F)n(C)c2Cl)c(F)cc1Cl [Compound 18, ethyl-5-(4-bromo-2-chloro-1-methyl-5-trifluoromethylpyrrol-3-yl)-2-chloro-4-fluorophenoxyacetate]
5: Herbicidal activity in post-emerqence, AT [1] | Herbicidal activity in post-emerqence, AR [2] | Herbicidal activity in post-emerqence, CA [3] | Herbicidal activity in post-emerqence, PO [4] | Herbicidal activity in post-emerqence, CS [5] | Herbicidal activity in post-emerqence, SN [6] | Herbicidal activity in post-emerqence, IP [7]
